In US7001896B2, “Compositions for treating diabetes” (Otsuka Pharmaceutical Factory, Inc., priority 2000, dated 2006):

Test system: New Zealand white rabbits given high-fat, high-sugar feed
Assay: Pharmacological Test Example 1: serum glucose level in rabbits fed high-fat, high-sugar feed
Assay type: in vivo
Details: for serum glucose level (mean±S.D.): Group 2 (n = 6), high-fat, high-sugar feed containing 1% Compound A from week 4, fasted overnight, feed 35 g/kg/day
Description: In this test, New Zealand white rabbits each weighing about 2 kg were divided into three groups, i.e., Group 1 consisting of 5 rabbits, Group 2 consisting of 6 rabbits, and Group 3 consisting of 6 rabbits.
The Group 1 rabbits were fed on an ordinary feed (Standard laboratory chow for rabbits, product of Shanghai Shengwang Experimental Animal Ranch (P.R. China)) (Normal Group).
The Group 2 rabbits were given for 4 weeks a high-fat, high-sugar feed prepared by adding 10% lard and 37% sucrose to the above-described standard laboratory chow. After confirming increases in blood glucose level, these rabbits were fed a high-fat, high-sugar feed as described above but containing 1% of the active ingredient (Compound A) of the pharmaceutical composition of the invention for treating diabetes (Experimental Group).
The Group 3 rabbits were fed the high-fat, high-sugar feed prepared by adding 10% lard and 37% sucrose to the standard laboratory chow described above (Control Group).
The rabbits of each group were allowed to eat the respective feeds ad libitum. In all groups, the amount of feed given was 35 g/kg/day per rabbit. The test period (period of feeding) was 24 weeks.
At the beginning of the test (0 week) and 4 weeks, 8 weeks, 12 weeks, 16 weeks, 20 weeks and 24 weeks later, the rabbits of each group fasted overnight, and blood samples were then collected from the auricular artery and assayed to measure the serum glucose level (mg/dl) using a commercially available glucose determination kit for enzymatic assaying (Glucose determination kit (Glucose oxidase-peroxidase method), product of Shanghai Rongsheng Biotech Inc. (P.R China).

CCOP(=O)(Cc1ccc(C(=O)Nc2ccc(Br)cc2C#N)cc1)OCC [Compound A, 4-diethoxyphosphinoylmethyl-N-(4-bromo-2-cyanophenyl)benzamide]
serum glucose level (mean±S.D.) (8 weeks later): 124.7 ± 29.2 mg/dL
serum glucose level (mean±S.D.) (12 weeks later): 84.7 ± 19.5 mg/dL
serum glucose level (mean±S.D.) (16 weeks later): 85.3 ± 12.8 mg/dL
serum glucose level (mean±S.D.) (20 weeks later): 90.0 ± 15.7 mg/dL
serum glucose level (mean±S.D.) (24 weeks later): 73.6 ± 6.1 mg/dL
change in blood glucose level (in words) (Group 2 given high-fat, high-sugar feed containing Compound A from 4 weeks after the beginning of the test, 24-week test, versus Control Group 3 with continuous increase): significant decrease in blood glucose level over time
